Earlier results in paper PMC9851200, “Multiparameter phenotypic screening for endogenous TFEB and TFE3 translocation identifies novel chemical series modulating lysosome function” (Autophagy, 2022).

Columns and labels:
Set-up in all cases: method as in original PKIS2 published data
[1] = molecular target: T1, kinases (KINOMEscan panel) (Homo sapiens, UniProt P29323); settings: EPHB2; Published KINOMEscan; ref original PKIS2 published data; cited from earlier work
T1 sequence (P29323 19-1055): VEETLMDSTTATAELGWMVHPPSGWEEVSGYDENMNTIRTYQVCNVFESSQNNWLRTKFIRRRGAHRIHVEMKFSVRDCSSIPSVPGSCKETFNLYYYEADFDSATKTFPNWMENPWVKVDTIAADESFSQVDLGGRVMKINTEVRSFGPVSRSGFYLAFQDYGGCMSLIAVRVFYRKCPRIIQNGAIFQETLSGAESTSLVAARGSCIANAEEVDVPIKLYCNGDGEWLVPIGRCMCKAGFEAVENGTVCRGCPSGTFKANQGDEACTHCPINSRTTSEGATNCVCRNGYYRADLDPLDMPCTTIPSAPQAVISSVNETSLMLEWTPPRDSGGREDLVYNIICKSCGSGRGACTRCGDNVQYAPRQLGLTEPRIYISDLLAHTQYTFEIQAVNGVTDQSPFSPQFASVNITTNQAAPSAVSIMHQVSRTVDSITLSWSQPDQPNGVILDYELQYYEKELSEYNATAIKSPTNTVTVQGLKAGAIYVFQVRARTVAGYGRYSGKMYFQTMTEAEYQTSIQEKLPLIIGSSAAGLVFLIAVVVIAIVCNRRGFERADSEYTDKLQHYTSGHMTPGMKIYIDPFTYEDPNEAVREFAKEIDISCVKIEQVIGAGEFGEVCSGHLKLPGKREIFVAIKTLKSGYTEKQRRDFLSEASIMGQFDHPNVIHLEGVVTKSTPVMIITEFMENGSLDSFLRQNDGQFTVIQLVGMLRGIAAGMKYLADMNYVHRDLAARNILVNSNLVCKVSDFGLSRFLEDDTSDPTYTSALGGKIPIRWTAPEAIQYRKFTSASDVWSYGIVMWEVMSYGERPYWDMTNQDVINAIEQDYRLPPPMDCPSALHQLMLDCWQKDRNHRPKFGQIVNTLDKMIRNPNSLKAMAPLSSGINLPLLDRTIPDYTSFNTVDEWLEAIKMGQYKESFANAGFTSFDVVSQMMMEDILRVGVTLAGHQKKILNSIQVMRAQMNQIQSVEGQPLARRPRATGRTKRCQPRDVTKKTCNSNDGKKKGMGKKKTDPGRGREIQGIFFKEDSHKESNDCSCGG

[2] = molecular target: kinases (KINOMEscan panel) (Homo sapiens, UniProt P14616); settings: INSRR; Published KINOMEscan; ref original PKIS2 published data; cited from earlier work
Sequence of kinases (KINOMEscan panel) (Homo sapiens, UniProt P14616) (P14616 27-1297): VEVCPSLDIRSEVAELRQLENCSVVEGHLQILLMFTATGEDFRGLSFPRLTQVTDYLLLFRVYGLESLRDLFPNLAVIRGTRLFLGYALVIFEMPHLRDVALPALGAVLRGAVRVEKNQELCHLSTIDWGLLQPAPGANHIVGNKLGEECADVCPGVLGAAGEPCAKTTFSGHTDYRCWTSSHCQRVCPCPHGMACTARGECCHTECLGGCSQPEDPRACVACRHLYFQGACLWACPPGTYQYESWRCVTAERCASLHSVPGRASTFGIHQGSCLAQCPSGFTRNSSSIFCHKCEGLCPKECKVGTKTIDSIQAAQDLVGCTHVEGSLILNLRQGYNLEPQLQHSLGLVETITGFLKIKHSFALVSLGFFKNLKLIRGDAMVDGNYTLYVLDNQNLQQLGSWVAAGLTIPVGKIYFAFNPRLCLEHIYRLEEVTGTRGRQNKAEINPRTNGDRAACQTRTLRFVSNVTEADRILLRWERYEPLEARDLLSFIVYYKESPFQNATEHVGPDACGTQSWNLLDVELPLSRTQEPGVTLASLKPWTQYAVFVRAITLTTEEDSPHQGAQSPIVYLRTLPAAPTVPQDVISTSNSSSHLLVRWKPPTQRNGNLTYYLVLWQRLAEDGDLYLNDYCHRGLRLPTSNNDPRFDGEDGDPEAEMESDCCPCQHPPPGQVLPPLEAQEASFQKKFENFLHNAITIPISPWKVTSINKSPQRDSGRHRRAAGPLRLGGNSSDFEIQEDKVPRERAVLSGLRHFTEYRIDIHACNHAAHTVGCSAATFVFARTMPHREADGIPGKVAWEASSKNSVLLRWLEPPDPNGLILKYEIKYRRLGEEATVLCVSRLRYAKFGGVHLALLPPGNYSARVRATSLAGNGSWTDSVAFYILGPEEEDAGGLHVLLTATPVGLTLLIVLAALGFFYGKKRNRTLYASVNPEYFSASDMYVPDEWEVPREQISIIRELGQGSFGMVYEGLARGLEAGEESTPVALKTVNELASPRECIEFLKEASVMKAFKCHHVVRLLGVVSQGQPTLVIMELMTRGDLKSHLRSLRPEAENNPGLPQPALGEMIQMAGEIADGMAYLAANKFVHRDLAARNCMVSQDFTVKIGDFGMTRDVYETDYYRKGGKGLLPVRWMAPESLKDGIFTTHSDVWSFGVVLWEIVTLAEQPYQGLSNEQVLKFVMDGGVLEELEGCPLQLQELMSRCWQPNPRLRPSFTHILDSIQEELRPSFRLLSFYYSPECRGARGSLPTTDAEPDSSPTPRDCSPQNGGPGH

[3] = molecular target: kinases (KINOMEscan panel) (Homo sapiens, UniProt O75914); settings: Published KINOMEscan; ref original PKIS2 published data; cited from earlier work
Sequence of kinases (KINOMEscan panel) (Homo sapiens, UniProt O75914) (O75914 whole entry): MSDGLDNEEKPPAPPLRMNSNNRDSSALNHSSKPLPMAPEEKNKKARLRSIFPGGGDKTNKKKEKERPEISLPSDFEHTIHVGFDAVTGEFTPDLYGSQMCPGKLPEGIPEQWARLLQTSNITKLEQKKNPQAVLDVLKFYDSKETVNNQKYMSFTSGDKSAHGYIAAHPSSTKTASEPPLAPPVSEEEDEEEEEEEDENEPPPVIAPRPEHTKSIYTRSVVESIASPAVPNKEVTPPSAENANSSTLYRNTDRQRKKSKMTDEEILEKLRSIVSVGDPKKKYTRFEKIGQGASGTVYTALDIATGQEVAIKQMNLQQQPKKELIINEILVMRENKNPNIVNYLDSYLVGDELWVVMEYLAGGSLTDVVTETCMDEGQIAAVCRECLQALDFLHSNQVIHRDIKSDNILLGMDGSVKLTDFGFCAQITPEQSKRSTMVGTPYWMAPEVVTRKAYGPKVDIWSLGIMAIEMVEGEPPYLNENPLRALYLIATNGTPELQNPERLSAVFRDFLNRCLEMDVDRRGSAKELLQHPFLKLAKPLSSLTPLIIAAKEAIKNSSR

[4] = molecular target: kinases (KINOMEscan panel) (Homo sapiens, UniProt P24941); settings: CDK2; Published KINOMEscan; ref original PKIS2 published data; cited from earlier work
[5] = molecular target: T2, kinases (KINOMEscan panel) (Homo sapiens, UniProt O14965); settings: Published KINOMEscan; ref original PKIS2 published data; cited from earlier work
T2 sequence (O14965 1-403): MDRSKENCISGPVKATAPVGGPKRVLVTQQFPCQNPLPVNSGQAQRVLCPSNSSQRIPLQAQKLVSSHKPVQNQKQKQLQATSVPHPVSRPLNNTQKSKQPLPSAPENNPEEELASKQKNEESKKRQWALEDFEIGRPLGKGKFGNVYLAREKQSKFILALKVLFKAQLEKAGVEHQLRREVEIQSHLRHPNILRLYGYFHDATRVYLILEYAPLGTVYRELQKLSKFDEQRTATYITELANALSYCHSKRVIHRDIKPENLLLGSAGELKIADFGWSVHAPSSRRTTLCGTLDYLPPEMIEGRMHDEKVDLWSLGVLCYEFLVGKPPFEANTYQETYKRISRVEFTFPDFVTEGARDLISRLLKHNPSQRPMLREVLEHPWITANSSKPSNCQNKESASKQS

[6] = molecular target: kinases (KINOMEscan panel) (Homo sapiens, UniProt O43293); settings: DAPK3; Published KINOMEscan; ref original PKIS2 published data; cited from earlier work
Sequence of kinases (KINOMEscan panel) (Homo sapiens, UniProt O43293) (O43293 whole entry): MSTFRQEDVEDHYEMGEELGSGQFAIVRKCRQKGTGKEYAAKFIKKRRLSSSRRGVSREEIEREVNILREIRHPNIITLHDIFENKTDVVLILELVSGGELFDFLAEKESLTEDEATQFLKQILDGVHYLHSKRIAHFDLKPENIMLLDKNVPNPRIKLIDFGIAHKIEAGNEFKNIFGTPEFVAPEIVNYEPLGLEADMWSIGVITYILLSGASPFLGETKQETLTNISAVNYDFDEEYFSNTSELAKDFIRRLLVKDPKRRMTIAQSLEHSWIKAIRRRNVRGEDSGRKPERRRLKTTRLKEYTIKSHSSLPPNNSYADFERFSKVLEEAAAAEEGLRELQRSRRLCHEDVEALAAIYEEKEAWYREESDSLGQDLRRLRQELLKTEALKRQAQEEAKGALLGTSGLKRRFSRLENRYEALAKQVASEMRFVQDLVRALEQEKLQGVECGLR

[7] = molecular target: T3, kinases (KINOMEscan panel) (Homo sapiens, UniProt P21709); settings: EPHA1; Published KINOMEscan; ref original PKIS2 published data; cited from earlier work
T3 sequence (P21709 26-976): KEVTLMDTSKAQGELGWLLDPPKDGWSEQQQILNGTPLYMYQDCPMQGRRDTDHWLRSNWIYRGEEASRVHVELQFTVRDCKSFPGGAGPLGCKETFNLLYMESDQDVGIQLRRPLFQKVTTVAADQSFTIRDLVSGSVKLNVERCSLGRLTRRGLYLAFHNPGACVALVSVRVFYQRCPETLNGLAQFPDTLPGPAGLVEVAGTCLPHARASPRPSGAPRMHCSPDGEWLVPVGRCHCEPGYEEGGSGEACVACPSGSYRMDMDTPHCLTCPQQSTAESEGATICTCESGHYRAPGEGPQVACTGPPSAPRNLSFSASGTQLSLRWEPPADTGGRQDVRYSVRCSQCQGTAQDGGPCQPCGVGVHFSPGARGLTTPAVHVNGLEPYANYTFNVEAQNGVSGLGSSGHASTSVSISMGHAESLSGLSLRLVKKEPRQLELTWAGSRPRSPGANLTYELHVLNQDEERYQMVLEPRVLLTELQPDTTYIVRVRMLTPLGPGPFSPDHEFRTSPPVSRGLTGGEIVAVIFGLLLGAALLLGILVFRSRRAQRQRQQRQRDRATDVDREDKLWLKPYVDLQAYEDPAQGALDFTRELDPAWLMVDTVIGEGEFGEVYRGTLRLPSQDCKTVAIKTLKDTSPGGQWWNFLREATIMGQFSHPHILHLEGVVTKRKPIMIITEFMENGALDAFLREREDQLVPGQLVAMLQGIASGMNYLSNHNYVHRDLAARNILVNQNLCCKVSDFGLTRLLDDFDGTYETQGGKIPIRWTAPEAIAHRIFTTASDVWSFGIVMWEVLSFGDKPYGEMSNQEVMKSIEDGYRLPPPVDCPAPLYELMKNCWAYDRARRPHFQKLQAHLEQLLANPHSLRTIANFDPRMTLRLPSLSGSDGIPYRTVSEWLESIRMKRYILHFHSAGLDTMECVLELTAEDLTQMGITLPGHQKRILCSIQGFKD

Question: What does the source list for `Cc1cccc(-c2nc(Nc3ccncc3)c3ccccc3n2)n1` [NK215]?
Answer: KINOMEscan EPHB2 [1]: 16; KINOMEscan INSRR [2]: 0; KINOMEscan PAK3 [3]: 0; KINOMEscan CDK2 [4]: 0; KINOMEscan AURKA [5]: 0; KINOMEscan DAPK3 [6]: 17; KINOMEscan EPHA1 [7]: 23
